Measurements taken from patent US20060062863A1, “Compositions for anti-obesity, health-restorative and health-promotional benefits” (priority 2004, published 2006).

Assay: Food intake and body weight in haloperidol-treated albino rats
Type: in vivo
Details: for % change in body weight: day-21 vs initial value; for % change in food intake: during the 21-day period vs initial value
Excerpt: The results of administration of the Type-I saponins or the total extractives (comprising Type-I to -III compounds) of Chlorophytum arundinaceum on the attendant changes in the food intake and body weight of albino rats (270±20 grams) are given in Table-1. Administration of haloperidol causes obesity as it appreciably increases food intake and induces rapid weight gain. The feeder contained at least three times more pellets than are normally consumed. Food intake and the body weight were assessed for one week in all rats prior to initiation of administration of the test compound(s). Both Type-I saponins and the total extractives annulled the gluttonous craving for food due to haloperidol with appreciable decrease in weight gain, compared to the haloperidol group. […] Sibutramine is used as a recognized anorexic drug.

[1] = haloperidol 20 mg/Kg i.p. once daily for 21 days, alone
[2] = 10 mg/Kg p.o. once daily for 21 days + haloperidol 20 mg/Kg i.p.

| SMILES | % change in body weight [1] | % change in food intake [1] | % change in body weight [2] | % change in food intake [2] |
| --- | --- | --- | --- | --- |
| O=C(CCCN1CCC(O)(c2ccc(Cl)cc2)CC1)c1ccc(F)cc1 [Haloperidol] | +35.13% | +45.32% | – | – |
| CC(C)CC(N(C)C)C1(c2ccc(Cl)cc2)CCC1 (stereo not shown) [Sibutramine] | – | – | +0.28% | −0.37% |
